From PubChem BioAssay AID2060610 (Molecular Pharmacology Branch, DTP, NCI, 2025)
pIC50: −log10 of the molar value.

Tested on: 616215-338-R-J1-PDC complex spheroids, viability % test/control
Experiment: Anticancer human tumor 616215-338-R-J1-PDC patient-derived colon adenocarcinoma cell line growth inhibition [CLK]
Conditions: for pIC50: curve of first compound; for viability, T/C: stronger effect = lower value
How it was run: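 Patient-derived tumor cells grown as complex spheroids with HUVEC endothelial cells and mesenchymal stem cells, treated with drug combinations. Concentrations descend in half-log steps from near clinical Cmax, or from 10 microM if Cmax unknown.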

[1] = second compound 0.0316 µM, first compound 0.0316 µM
[2] = second compound 0.0316 µM, first compound 0.1 µM
[3] = second compound 0.0316 µM, first compound 0.316 µM
[4] = second compound 0.0316 µM, first compound 1 µM
[5] = second compound 0.0316 µM, first compound 3.16 µM
[6] = second compound 0.0316 µM, first compound 10 µM
[7] = second compound 0.1 µM, first compound 0.0316 µM
[8] = second compound 0.1 µM, first compound 0.1 µM
[9] = second compound 0.1 µM, first compound 0.316 µM
[10] = second compound 0.1 µM, first compound 1 µM
[11] = second compound 0.1 µM, first compound 3.16 µM
[12] = second compound 0.1 µM, first compound 10 µM
[13] = second compound 0.316 µM, first compound 0.0316 µM
[14] = second compound 0.316 µM, first compound 0.1 µM
[15] = second compound 0.316 µM, first compound 0.316 µM
[16] = second compound 0.316 µM, first compound 1 µM
[17] = second compound 0.316 µM, first compound 3.16 µM
[18] = second compound 0.316 µM, first compound 10 µM
[19] = second compound 1 µM, first compound 0.0316 µM
[20] = second compound 1 µM, first compound 0.1 µM
[21] = second compound 1 µM, first compound 0.316 µM
[22] = second compound 1 µM, first compound 1 µM
[23] = second compound 1 µM, first compound 3.16 µM
[24] = second compound 1 µM, first compound 10 µM
[25] = second compound 3.16 µM, first compound 0.0316 µM
[26] = second compound 3.16 µM, first compound 0.1 µM
[27] = second compound 3.16 µM, first compound 0.316 µM
[28] = second compound 3.16 µM, first compound 1 µM
[29] = second compound 3.16 µM, first compound 3.16 µM
[30] = second compound 3.16 µM, first compound 10 µM
[31] = second compound 10 µM, first compound 0.0316 µM
[32] = second compound 10 µM, first compound 0.1 µM
[33] = second compound 10 µM, first compound 0.316 µM
[34] = second compound 10 µM, first compound 1 µM
[35] = second compound 10 µM, first compound 3.16 µM
[36] = second compound 10 µM, first compound 10 µM
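Note: spheroids exposed to agents for 7 days.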
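Throughout, for viability, T/C: 100% = DMSO vehicle wells.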

For CC(=O)O[C@H]1C(=O)[C@@]2(C)[C@H]([C@H](OC(=O)c3ccccc3)[C@]3(O)C[C@H](OC(=O)[C@H](O)[C@@H](NC(=O)c4ccccc4)c4ccccc4)C(C)=C1C3(C)C)[C@]1(OC(C)=O)CO[C@@H]1C[C@@H]2O + CN1CCN(c2cc(C(=O)Nc3cc4cc(-c5cnn(C)c5)ccc4cn3)ccn2)CC1, the pIC50 (second compound 0.0316 µM) was greater than 7.50, the pIC50 (second compound 0.1 µM) was greater than 7.50 and the pIC50 (second compound 0.316 µM) was greater than 7.50. For the same compound, the pIC50 (second compound 1 µM) was greater than 7.50, the pIC50 (second compound 3.16 µM) was greater than 7.50 and the pIC50 (second compound 10 µM) was greater than 7.50. It also gave a viability, T/C [1] of 31.2%, a viability, T/C [2] of 21.8% and a viability, T/C [3] of 14.7%. For the same compound, the viability, T/C [4] was 18%, the viability, T/C [5] was 18.6% and the viability, T/C [6] was 22.4%. It also gave a viability, T/C [7] of 31.1%, a viability, T/C [8] of 17.9% and a viability, T/C [9] of 19.9%. The viability, T/C [10] was 16.4%, the viability, T/C [11] was 17.4% and the viability, T/C [12] was 25.2%. The viability, T/C [13] was 21.8%, the viability, T/C [14] was 18% and the viability, T/C [15] was 19.3%. The viability, T/C [16] was 16.1%, the viability, T/C [17] was 19.9% and the viability, T/C [18] was 20.5%. It also gave a viability, T/C [19] of 0.09%, a viability, T/C [20] of 0.12% and a viability, T/C [21] of 3.34%. It also gave a viability, T/C [22] of 0.08%, a viability, T/C [23] of 0.1% and a viability, T/C [24] of 3.08%. It also gave a viability, T/C [25] of 0.05%, a viability, T/C [26] of 0.11% and a viability, T/C [27] of 0.13%. The viability, T/C [28] was 0.1%, the viability, T/C [29] was 1.96% and the viability, T/C [30] was 2.3%. The viability, T/C [31] was 0.06%, the viability, T/C [32] was 0.13% and the viability, T/C [33] was 0.17%. The viability, T/C [34] was 0.16%, the viability, T/C [35] was 0.19% and the viability, T/C [36] was 1.72%.
CCc1c2c(nc3ccc(O)cc13)-c1cc3c(c(=O)n1C2)COC(=O)[C@]3(O)CC + CN1CCN(c2cc(C(=O)Nc3cc4cc(-c5cnn(C)c5)ccc4cn3)ccn2)CC1 was tested, and the pIC50 (second compound 0.0316 µM) was 8.02, the pIC50 (second compound 0.1 µM) was 8.44 and the pIC50 (second compound 0.316 µM) was greater than 8.50. It also gave a pIC50 (second compound 1 µM) greater than 8.50, a pIC50 (second compound 3.16 µM) greater than 8.50 and a pIC50 (second compound 10 µM) greater than 8.50. It also gave a viability, T/C (second compound 0.0316 µM, first compound 0.00316 µM) of 98.2%, a viability, T/C (second compound 0.0316 µM, first compound 0.01 µM) of 42.2% and a viability, T/C [1] of 32.1%. The viability, T/C [2] was 18%, the viability, T/C [3] was 12.9% and the viability, T/C [4] was 4.92%. It also gave a viability, T/C (second compound 0.1 µM, first compound 0.00316 µM) of 50.8%, a viability, T/C (second compound 0.1 µM, first compound 0.01 µM) of 40.2% and a viability, T/C [7] of 19.1%. The viability, T/C [8] was 13.1%, the viability, T/C [9] was 14.1% and the viability, T/C [10] was 1.26%. For the same compound, the viability, T/C (second compound 0.316 µM, first compound 0.00316 µM) was 34.2%, the viability, T/C (second compound 0.316 µM, first compound 0.01 µM) was 17.8% and the viability, T/C [13] was 13.5%. The viability, T/C [14] was 8.84%, the viability, T/C [15] was 1.45% and the viability, T/C [16] was 1.92%. It also gave a viability, T/C (second compound 1 µM, first compound 0.00316 µM) of 0.13%, a viability, T/C (second compound 1 µM, first compound 0.01 µM) of 0.13% and a viability, T/C [19] of 3.09%. It also gave a viability, T/C [20] of 0.08%, a viability, T/C [21] of 0.06% and a viability, T/C [22] of 1.66%. For the same compound, the viability, T/C (second compound 3.16 µM, first compound 0.00316 µM) was 0.07%, the viability, T/C (second compound 3.16 µM, first compound 0.01 µM) was 0.12% and the viability, T/C [25] was 1.53%. For the same compound, the viability, T/C [26] was 0.09%, the viability, T/C [27] was 3.53% and the viability, T/C [28] was 4.86%. The viability, T/C (second compound 10 µM, first compound 0.00316 µM) was 0.08%, the viability, T/C (second compound 10 µM, first compound 0.01 µM) was 0.13% and the viability, T/C [31] was 0.18%. The viability, T/C [32] was 0.13%, the viability, T/C [33] was 3.18% and the viability, T/C [34] was 1.61%.
With O=c1[nH]cc(F)c(=O)[nH]1 + CN1CCN(c2cc(C(=O)Nc3cc4cc(-c5cnn(C)c5)ccc4cn3)ccn2)CC1 the pIC50 (second compound 0.0316 µM) was 6.10, the pIC50 (second compound 0.1 µM) was 6.16 and the pIC50 (second compound 0.316 µM) was greater than 7.50. For the same compound, the pIC50 (second compound 1 µM) was greater than 7.50, the pIC50 (second compound 3.16 µM) was greater than 7.50 and the pIC50 (second compound 10 µM) was greater than 7.50. The viability, T/C [1] was 98.6%, the viability, T/C [2] was 119% and the viability, T/C [3] was 64.4%. For the same compound, the viability, T/C [4] was 46.2%, the viability, T/C [5] was 42.4% and the viability, T/C [6] was 50.6%. It also gave a viability, T/C [7] of 121%, a viability, T/C [8] of 109% and a viability, T/C [9] of 61.2%. For the same compound, the viability, T/C [10] was 49.6%, the viability, T/C [11] was 38.7% and the viability, T/C [12] was 41.1%. The viability, T/C [13] was 31.9%, the viability, T/C [14] was 34.7% and the viability, T/C [15] was 41.8%. For the same compound, the viability, T/C [16] was 33.3%, the viability, T/C [17] was 29.6% and the viability, T/C [18] was 26.6%. The viability, T/C [19] was 0.14%, the viability, T/C [20] was 1.14% and the viability, T/C [21] was 2.43%. The viability, T/C [22] was 0.08%, the viability, T/C [23] was 2.58% and the viability, T/C [24] was 2.28%. The viability, T/C [25] was 0.08%, the viability, T/C [26] was 0.42% and the viability, T/C [27] was 1.29%. For the same compound, the viability, T/C [28] was 0.07%, the viability, T/C [29] was 0.09% and the viability, T/C [30] was 0.13%. For the same compound, the viability, T/C [31] was 0.07%, the viability, T/C [32] was 1.38% and the viability, T/C [33] was 4.56%. The viability, T/C [34] was 0.1%, the viability, T/C [35] was 2.34% and the viability, T/C [36] was 0.19%.
